A short description of this data set: logP determination by HPLC on reverse-phase column (C 18), EEC directive 79/831 Annex V.A8. The data set is classed as physicochemical. Here is the method: In the acidic range, the determination is carried out at pH 2.3 using the mobile phases 0.1% aqueous phosphoric acid and acetonitrile; linear gradient from 10% acetonitrile to 90% acetonitrile.
In the neutral range, the determination is carried out at pH 7.5 using the mobile phases 0.01 molar aqueous phosphate buffer solution and acetonitrile; linear gradient from 10% acetonitrile to 90% acetonitrile.

Setting [1] is: reverse-phase HPLC column (C 18), pH 2.3, acidic range, pH 2.3; 0.1% aqueous phosphoric acid/acetonitrile gradient; 43° C.; values marked a).
[2] abbreviates: reverse-phase HPLC column (C 18), pH 7.5, neutral range, pH 7.5; 0.01 molar aqueous phosphate buffer/acetonitrile gradient; 43° C.; values marked b).

In turn, `O=C1CCC(c2ccc(-c3ccc(SC(F)(F)F)cc3)cc2)N1` (single isomer, unassigned; isomer 5) [V-2 para isomer, 5-{4′-[(trifluoromethyl)thio]-1,1′-biphenyl-4-yl}-2-pyrrolidinone] registered a chromatographic logP under setting [1] of 3.24.

`FC(F)(F)Oc1ccc(C2CCC(c3ccccc3Br)=N2)cc1` (stereo not drawn) [Example 1, 5-(2-bromophenyl)-2-[4-(trifluoro-methoxy)phenyl]-3,4-dihydro-2H-pyrrole] registered a chromatographic logP under setting [1] of 3.61.

Under setting [1], `FC(F)(F)c1ccccc1C1=NC(c2ccc(Br)cc2)CC1` (stereo not drawn) [Example 2] returned a chromatographic logP of 3.9.

Regarding `FC(F)(F)Oc1ccc(-c2ccc(C3CCC(c4ccccc4C(F)(F)F)=N3)cc2)cc1` (stereo not drawn) [Example 3], the chromatographic logP under setting [1] was 5.11.

For the compound `Fc1ccccc1C1=NC(c2ccc(-c3ccc(OC(F)(F)F)cc3)cc2)CC1` (stereo not drawn) [Example 4], the chromatographic logP worked out at 3.09 under setting [1] and 5.45 under setting [2].

Consider `COc1ccccc1C1=NC(c2ccc(-c3ccc(OC(F)(F)F)cc3)cc2)CC1` (stereo not drawn) [Example 5], for which the chromatographic logP was determined as 2.55 under setting [1] and 5.23 under setting [2].

Under setting [1], `Cc1cccc(C)c1C1=NC(c2ccc(-c3ccc(OC(F)(F)F)cc3)cc2)CC1` (stereo not drawn) [Example 6] gave a chromatographic logP of 5.7.

As for `FC(F)(F)Oc1ccc(-c2ccc(C3CCC(c4ccccc4OC(F)(F)F)=N3)cc2)cc1` (stereo not drawn) [Example 7], the chromatographic logP under setting [1] was 4.83.

`FC(F)(F)Oc1ccc(-c2ccc(C3CCC(c4ccc(Cl)cc4Cl)=N3)cc2)cc1` (stereo not drawn) [Example 8]: the chromatographic logP under setting [1] came to 5.69.

Under setting [1], `Fc1cccc(F)c1C1=NC(c2ccc(OCC(F)(F)F)cc2)CC1` (stereo not drawn) [Example 9] came in with a chromatographic logP of 2.41.

`C=CCOc1ccc(C2CCC(c3ccccc3F)=N2)cc1` (stereo not drawn) [Example 10] showed a chromatographic logP under setting [1] of 1.63.

Under setting [1], `Clc1ccccc1C1=NC(c2cccc(Br)c2)CC1` (stereo not drawn) [Example 15] showed a chromatographic logP of 2.99.

Take `FC(F)(F)Sc1ccc(-c2ccc(C3CCC(c4ccccc4Cl)=N3)cc2)cc1` (stereo not drawn) [Example 16]: the chromatographic logP stood at 4.67 under setting [1] and 5.94 under setting [2].

Take `Fc1ccccc1C1=NC(c2ccc(-c3ccc(SC(F)(F)F)cc3)cc2)CC1` (stereo not drawn) [Example 17]: the chromatographic logP was found to be 3.45 under setting [1] and 5.84 under setting [2].

`Cc1ccccc1C1=NC(c2ccc(-c3ccc(SC(F)(F)F)cc3)cc2)CC1` (stereo not drawn) [Example 18]: the chromatographic logP under setting [1] came to 3.25 and the chromatographic logP under setting [2] is 6.1.

For `FC(F)(F)Sc1ccc(-c2ccc(C3CCC(c4ccc(Cl)cc4Cl)=N3)cc2)cc1` (stereo not drawn) [Example 19], the chromatographic logP under setting [1] turned out to be 6.19.

`CC(C)(C)c1ccc(C2CCC(c3ccccc3Cl)=N2)cc1` (stereo not drawn) [Example 20] registered a chromatographic logP under setting [1] of 3.05.

Consider `CC(C)c1ccc(C2CCC(c3ccccc3Cl)=N2)cc1` (stereo not drawn) [Example 21], for which, under setting [1], the chromatographic logP was 2.74.

On to `CC(C)c1ccc(C2CCC(c3ccccc3F)=N2)cc1` (stereo not drawn) [Example 22], for which the chromatographic logP under setting [1] came to 2.09.

For the compound `CC(C)c1ccc(C2CCC(c3ccccc3Br)=N2)cc1` (stereo not drawn) [Example 23], under setting [1], the chromatographic logP was determined as 3.06.

As to `CC(C)(C)c1ccc(C2CCC(c3ccccc3F)=N2)cc1` (stereo not drawn) [Example 24], the chromatographic logP came to 2.33 under setting [1] and 5.06 under setting [2].

For the compound `Cc1ccccc1C1=NC(c2ccc(C(C)C)cc2)CC1` (stereo not drawn) [Example 25], the chromatographic logP by setting is: under setting [1], 2.11; under setting [2], 5.01.

For the compound `CC(C)(C)c1ccc(C2CCC(c3ccccc3Br)=N2)cc1` (stereo not drawn) [Example 26], the chromatographic logP stood at 3.36 under setting [1] and 5.21 under setting [2].

In turn, `Cc1ccccc1C1=NC(c2ccc(C(C)(C)C)cc2)CC1` (stereo not drawn) [Example 27] yielded a chromatographic logP under setting [1] of 2.31.

Regarding `Cc1cc(Cl)ccc1C1CCC(c2ccccc2Cl)=N1` (stereo not drawn) [Example 28], the chromatographic logP by setting is: under setting [1], 3.18; under setting [2], 4.62.

On to `Cc1cc(Cl)ccc1C1CCC(c2ccccc2Br)=N1` (stereo not drawn) [Example 29], for which the chromatographic logP runs as follows: under setting [1], 3.55; under setting [2], 4.63.
